Measurements reported in patent US5089494A, “4-phenylphthalazine derivatives which inhibit platelet aggregation” (Mitsubishi Kasei Corporation, priority 1990, dated 1992).

Assays:
platelet aggregation [1] = test: Platelet aggregation-inhibitory activity in vitro (collagen-induced, rat platelet rich plasma); format: cell-based; conditions: for inhibition at 1 µM / inhibition at 0.1 µM / inhibition at 0.3 µM: read-out: in vitro Inhibitory ratio; for inhibition at 0.3 µM: 3 × 10^-7 M
Procedure: Platelet aggregation-inhibitory activity in vitro
Rat arterial blood was centrifuged to obtain platelet rich plasma.
Platelet aggregation inhibitory ratio was calculated by the following formula: [formula] Tc: Aggregation degree where only a solvent was added. Ts: Aggregation degree where a solution of the test compound was added.

platelet aggregation [2] = test: Platelet aggregation inhibitory activity ex vivo (by oral administration); format: in vivo, male Wistar ST rats; conditions: 1 hour, collagen 7 to 10 μg/ml, rat
Procedure: Platelet aggregation inhibitory activity ex vivo (by oral administration)
A group of 8 male Wistar ST rats each weighing about 250 grams were used. To the test animal was orally administered 4 ml/kg of a solution made by suspending a test compound in 1% aqueous tragacanth solution, and one hour later blood was collected from common carotid artery with a cannula. […] The residue was further centrifuged by […] for 15 minutes and the supernatant was recovered as poor platelet plasma (PPP). The plasma samples were used for assaying the platelet aggregating ability.
As an aggregation inducer, 7 to 10 μg/ml of collagen (Hormon-Chemie) was used.
Platelet Aggregation-inhibitory ratio was calculated by the following formula: [formula] A: Aggregating ratio of the group (control) in which only 1% aqueous tragacanth solution was administered.
B: Aggregating ratio of the group in which a solution of the test compound in tragacanth solution was administered.

[3] = test system: rat left coronary artery ligation-induced cardiac infarction; test: Activity to rat left coronary artery ligation-induced cardiac infarction; format: in vivo, male SD rats; conditions: 60 minutes prior to ligation
From the text: Activity of the compounds (I) to rat left coronary artery ligation-induced cardiac infarction
A group of 8 male SD rats weighing 200 to 250 g were used. The rats were fixed at the dosal position under light ether paralysis, subjected to longitudinal incission in about 1.5 cm along the sternal left line to make thoractonomy under breaking the heart sac and exposing the heart. After ligating the left main coronary artery at 1 to 2 mm from the origin with black blade silk suture (Hama Ika Kogyo, 4-0), the heart was returned at the original position and the breast was closed immediately. The bilateral breast was pressed to exclude the air in the thoracic cavity to resume respiration. […] Twenty-four hours after ligation, the blood was collected from the ventral vena cava, and the rat was killed by complete bleeding. The heart was taken out, and the cross circular slice (about 2 mm) at the central part of the heart was incubated at 37° C. in the dark for 20 minutes in 20 ml of 1% solution of TTC (tryphenyl tetrazolium chloride, Wako Junyaku) in 0.09 M phosphate buffer (pH 8.6). The slice was photographed under a stereoscopic microscope, and the colored slides were prepared therefrom. The slides were projected on the wall, and the sections, the infarction parts (TTC non-dyed part) and non-infarction parts (TTC dyed part), were traced. So, the area of the infarction part in the total section area was calculated. A solution made by suspending the test compound in 1% aqueous tragacanth solution was orally administered 60 minutes prior to the coronary artery ligation. [formula] A: Infarction ratio where only 1% tragacanth solution was administered for control.
B: Infarction ratio where the tragacanth solution containing the test compound was administered.

Structure (SMILES)	inhibition at 1 µM (platelet aggregation [1]; 10^-6 M) [%]	inhibition at 0.1 µM (platelet aggregation [1]; 10^-7 M) [%]	also measured
CC(Nc1nnc(-c2ccccc2)c2ccccc12)c1ccccc1 (racemic) [1 (DL)]	84	72.2	ex vivo Inhibitory ratio (p.o.) (platelet aggregation [2]; 1 mg/kg p.o.): 76.2%; ex vivo Inhibitory ratio (p.o.) (platelet aggregation [2]; 3 mg/kg p.o.): 79.8%
Cc1ccccc1C(C)Nc1nnc(-c2ccccc2)c2ccccc12 (racemic) [58 (DL)]		89.9	
CC(Nc1nnc(-c2ccccc2)c2ccccc12)c1cccc(Cl)c1 (racemic) [81 (DL)]	98.3	40.7	ex vivo Inhibitory ratio (p.o.) (platelet aggregation [2]; 10 mg/kg p.o.): 72.5%
c1ccc(-c2nnc(NC3(c4ccccc4)CCCCC3)c3ccccc23)cc1 [compound 136]		94.7	
COc1ccc(C(C)Nc2nnc(-c3ccccc3)c3ccccc23)cc1OC (racemic) [78 (DL)]		6.2	inhibition at 0.3 µM (platelet aggregation [1]): 93.6%
CCC(Nc1nnc(-c2ccccc2)c2ccccc12)c1ccccc1 (racemic) [2 (DL)]	96.4	100	ex vivo Inhibitory ratio (p.o.) (platelet aggregation [2]; 1 mg/kg p.o.): 37.8%; ex vivo Inhibitory ratio (p.o.) (platelet aggregation [2]; 3 mg/kg p.o.): 52.3%; ex vivo Inhibitory ratio (p.o.) (platelet aggregation [2]; 10 mg/kg p.o.): 94.5%
Cc1ccc(C(C)(C)Nc2nnc(-c3ccccc3)c3ccccc23)cc1 [compound 166]	100	100	
CCCCC(Nc1nnc(-c2ccccc2)c2ccccc12)c1ccccc1 (racemic) [5 (DL)]	98.4	20.6	
COc1ccc(C(C)Nc2nnc(-c3ccccc3)c3ccccc23)cc1 (racemic) [69 (DL)]		21	inhibition at 0.3 µM (platelet aggregation [1]): 74.7%
CCc1ccc(C(C)Nc2nnc(-c3ccccc3)c3ccccc23)cc1 (racemic) [59 (DL)]		56.5	
CC(Nc1nnc(-c2ccccc2)c2ccccc12)c1ccc(Cl)cc1 (racemic) [80 (DL)]		26.3	inhibition at 0.3 µM (platelet aggregation [1]): 93.3%
COc1ccccc1C(C)Nc1nnc(-c2ccccc2)c2ccccc12 (racemic) [73 (DL)]		93.3	
CC(=O)Oc1ccccc1C(=O)O [Aspirin, reference compound]			Cardiac infarction inhibitory ratio ([3]; 100 mg/kg p.o.): 10.7%
CC(Nc1nnc(-c2ccccc2)c2ccccc12)c1ccccc1F (racemic) [87 (DL)]	52.4		
CC(C)C(Nc1nnc(-c2ccccc2)c2ccccc12)c1ccccc1 (racemic) [4 (DL)]	96.6	49.3	
CC(Nc1nnc(-c2ccccc2)c2ccccc12)c1cccc(C(F)(F)F)c1 (racemic) [92 (DL)]	89.5	1.5	
CC(Nc1nnc(-c2ccccc2)c2ccccc12)c1ccc(C(F)(F)F)cc1 (racemic) [91 (DL)]	22.5		

Structure (SMILES)	inhibition at 1 µM (platelet aggregation [1]; 10^-6 M) [%]	inhibition at 0.1 µM (platelet aggregation [1]; 10^-7 M) [%]	also measured
Cc1cccc(C(C)(C)Nc2nnc(-c3ccccc3)c3ccccc23)c1 [compound 167]	100	100	
CC(Nc1nnc(-c2ccccc2)c2ccccc12)c1ccccc1Cl (racemic) [82 (DL)]	65.5		inhibition at 0.3 µM (platelet aggregation [1]): 58.5%
c1ccc(CCCNc2nnc(-c3ccccc3)c3ccccc23)cc1 [Control 3, reference compound]	40.7	12.6	
Clc1ccccc1CN1CCc2sccc2C1 [Ticlopidine, reference compound]			Cardiac infarction inhibitory ratio ([3]; 30 mg/kg p.o.): 10.1%
CC(Nc1nnc(-c2ccccc2)c2ccccc12)c1ccc2c(c1)OCO2 (racemic) [79 (DL)]		6.3	inhibition at 0.3 µM (platelet aggregation [1]): 95.3%
CC(Cc1ccccc1)Nc1nnc(-c2ccccc2)c2ccccc12 (centres unmarked) [Control 4, reference compound]	7.1		
CC(Nc1nnc(-c2ccc(Cl)cc2)c2ccccc12)c1ccccc1 (racemic) [34 (DL)]	100		
COc1cccc(C(C)Nc2nnc(-c3ccccc3)c3ccccc23)c1 (racemic) [72 (DL)]	94.8	14.9	
CCCC(Nc1nnc(-c2ccccc2)c2ccccc12)c1ccccc1 (racemic) [3 (DL)]		65.9	inhibition at 0.3 µM (platelet aggregation [1]): 96.8%
CC(Nc1nnc(-c2ccccc2)c2ccccc12)c1cccc(F)c1 (racemic) [86 (DL)]	100		ex vivo Inhibitory ratio (p.o.) (platelet aggregation [2]; 1 mg/kg p.o.): 40.5%
CC(Nc1nnc(-c2ccccc2)c2ccccc12)c1ccc(F)cc1 (racemic) [85 (DL)]		10.2	inhibition at 0.3 µM (platelet aggregation [1]): 94.1%
CC(C)(C)C(Nc1nnc(-c2ccccc2)c2ccccc12)c1ccccc1 (racemic) [8 (DL)]	100	100	ex vivo Inhibitory ratio (p.o.) (platelet aggregation [2]; 1 mg/kg p.o.): 22.0%; ex vivo Inhibitory ratio (p.o.) (platelet aggregation [2]; 3 mg/kg p.o.): 35.1%; ex vivo Inhibitory ratio (p.o.) (platelet aggregation [2]; 10 mg/kg p.o.): 69.9%
CC(C)(Nc1nnc(-c2ccccc2)c2ccccc12)c1ccccc1 [Compound No. 119, 1-α,α-dimethylbenzylamino-4-phenylphthalazine]		93	
Cc1ccc(C(C)Nc2nnc(-c3ccccc3)c3ccccc23)cc1 (racemic) [56 (DL)]		92.9	
C[C@@H](Nc1nnc(-c2ccccc2)c2ccccc12)c1ccccc1 [1 (D), D-1-α-methylbenzylamino-4-phenylphthalazine]			in vitro Inhibitory ratio (platelet aggregation [1]; 10^-6 M, 1 µM): 100%; in vitro Inhibitory ratio (platelet aggregation [1]; 10^-7 M, 0.1 µM): 100%; ex vivo Inhibitory ratio (p.o.) (platelet aggregation [2]; 1 mg/kg p.o.): 65.5%; ex vivo Inhibitory ratio (p.o.) (platelet aggregation [2]; 3 mg/kg p.o.): 80.2%; ex vivo Inhibitory ratio (p.o.) (platelet aggregation [2]; 10 mg/kg p.o.): 88.5%; Cardiac infarction inhibitory ratio ([3]; 2 mg/kg p.o.): 81.1%; Cardiac infarction inhibitory ratio ([3]; 10 mg/kg p.o.): 76.6%
Cc1cccc(C(C)Nc2nnc(-c3ccccc3)c3ccccc23)c1 (racemic) [57 (DL)]		90.3	ex vivo Inhibitory ratio (p.o.) (platelet aggregation [2]; 1 mg/kg p.o.): 61.8%
